We go through 18 compounds from patent publication US9150592B2, “Heterocyclic nuclear hormone receptor modulators” (AbbVie Inc., priority 2012, dated 2015).

The assay addresses T1, Glucocorticoid Receptor (GR) (Homo sapiens, UniProt P04150).
T1 construct: purchased Invitrogen P2893
T1 sequence (P04150 1-777): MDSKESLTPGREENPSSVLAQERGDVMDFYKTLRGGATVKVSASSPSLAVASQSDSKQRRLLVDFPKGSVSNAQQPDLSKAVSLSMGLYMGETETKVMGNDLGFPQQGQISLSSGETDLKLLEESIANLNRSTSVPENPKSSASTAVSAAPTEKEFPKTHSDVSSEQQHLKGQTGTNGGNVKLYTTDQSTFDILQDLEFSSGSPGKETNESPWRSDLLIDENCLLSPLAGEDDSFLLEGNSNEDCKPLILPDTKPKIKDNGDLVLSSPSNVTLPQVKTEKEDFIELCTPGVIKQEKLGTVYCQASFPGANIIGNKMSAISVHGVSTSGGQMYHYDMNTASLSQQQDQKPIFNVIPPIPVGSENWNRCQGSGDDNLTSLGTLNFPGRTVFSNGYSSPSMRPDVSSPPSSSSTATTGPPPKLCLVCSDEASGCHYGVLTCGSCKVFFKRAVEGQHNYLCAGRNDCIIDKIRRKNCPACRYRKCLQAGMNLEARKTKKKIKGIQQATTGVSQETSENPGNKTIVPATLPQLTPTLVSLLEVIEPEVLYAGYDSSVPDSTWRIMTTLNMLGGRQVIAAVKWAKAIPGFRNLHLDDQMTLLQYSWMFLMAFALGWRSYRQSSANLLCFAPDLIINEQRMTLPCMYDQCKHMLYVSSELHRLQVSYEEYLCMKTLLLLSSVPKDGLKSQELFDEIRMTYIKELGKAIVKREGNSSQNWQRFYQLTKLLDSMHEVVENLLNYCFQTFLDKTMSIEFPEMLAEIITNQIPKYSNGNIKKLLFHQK
Nature of the assay: GR Fluorescence Polarization Assay (PolarScreen Glucocorticoid Receptor Competitor Assay, Red). To be noted: IC50 class ranges, read-out: GR binding. The procedure: GR Fluorescence Polarization Assay
Fluorescence polarization assays were carried out using the PolarScreen™ Glucocorticoid Receptor Competitor Assay, Red from Invitrogen (P2893). The assay buffer was prepared according to the manufacturer's protocol and used to dilute the fluorescent glucocorticoid and GR. Compounds were prepared and serial diluted 1:4 in DMSO. Compound, fluorescent glucocorticoid and GR were added in a final volume of 20 μL and incubated overnight at 4° C. Fluorescent polarization was measured on the PerkinElmer Envision®.
On the technique in general: In fluorescence polarisation assays a small probe gives low polarisation when free and higher when bound to something large.
Consider `Cn1nc(-c2ccccn2)c2c1NCCSC2c1ccc(C(C)(C)O)cc1Cl` (stereo not drawn), for which the IC50 lay in the range of 1 to 10 µM.

For `Cn1nc(-c2ccccn2)c2c1N(CC(=O)O)CCSC2c1ccc(Cl)cc1Cl` (stereo not drawn), the IC50 lay within 1 to 10 µM.

Turning to `Cn1nc(-c2ccccn2)c2c1N(CC(N)=O)CCSC2c1ccc(Cl)cc1Cl` (stereo not drawn), the IC50 was 1 to 10 µM.

With `Cc1ncccc1NC(=O)c1ccc(C2SCCNc3c2c(-c2ccccn2)nn3C)c(Cl)c1` (stereo not drawn), the IC50 is under 0.1 µM.

Take `Cc1cccc(-c2nn(C)c3c2C(c2ccc(Cl)cc2C)SCCN3)n1` (stereo not drawn): the IC50 lay in the range of 1 to 10 µM.

As to `Cn1nc(-c2ccc(C(=O)O)cn2)c2c1NCCSC2c1ccc(Cl)cc1Cl` (stereo not drawn), the IC50 is 1 to 10 µM.

With `Cc1ncccc1NC(=O)N1CCC(C2SCCNc3c2c(-c2ccccn2)nn3C)CC1` (stereo not drawn), the IC50 is over 10 µM.

For the compound `Cc1ncccc1C(=O)N1CCC(C2SCCNc3c2c(-c2ccccn2)nn3C)CC1` (stereo not drawn), the IC50 is over 10 µM.

Regarding `Cc1cc(Cl)ccc1C1SCCNc2c1c(-c1ccccn1)nn2C` (single isomer, unassigned), the IC50 is under 0.1 µM.

Turning to `Cc1cc(Cl)ccc1C1SCC(C)Nc2c1c(-c1ccccn1)nn2C` (single isomer, unassigned), the IC50 was under 0.1 µM.

As for `Cc1cc(C(=O)Nc2cccnc2C)ccc1C1SCC(CO)Nc2c1c(-c1ccccn1)nn2C` (single isomer, unassigned), the IC50 was 1 to 10 µM.

Regarding `Cc1ncccc1NC(=O)c1ccc([C@H]2SC[C@H](C)Nc3c2c(-c2ccccn2)nn3C)c(C#N)c1` (single isomer, unassigned) [M.18, 3-cyano-4-(1,7-dimethyl-3-(pyridin-2-yl)-4,6,7,8-tetrahydro-1H-pyrazolo[3,4-e][1,4]thiazepin-4-yl)-N-(2-methylpyridin-3-yl)benzamide], the IC50 was in the range of 1 to 10 µM.

As to `Cc1ncccc1NC(=O)c1ccc([C@H]2SC[C@@H](C)Nc3c2c(-c2ccccn2)nn3C)c(C#N)c1` (single isomer, unassigned) [M.19, 3-cyano-4-(1,7-dimethyl-3-(pyridin-2-yl)-4,6,7,8-tetrahydro-1H-pyrazolo[3,4-e][1,4]thiazepin-4-yl)-N-(2-methylpyridin-3-yl)benzamide], the IC50 lay in the range of 1 to 10 µM.

On to `Cc1cc(C#N)ccc1C1SCCNc2c1c(-c1ccccn1)nn2C` (single isomer, unassigned) [M.21, 3-methyl-4-(1-methyl-3-(pyridin-2-yl)-4,6,7,8-tetrahydro-1H-pyrazolo[3,4-e][1,4]thiazepin-4-yl)benzonitrile], for which the IC50 is under 0.1 µM.

Regarding `CCn1nc(-c2ccccn2)c2c1N[C@@H](C)CS[C@@H]2c1ccc(C#CCO)cc1C` (single isomer, unassigned) [M.25, 3-(4-(1-ethyl-7-methyl-3-(pyridin-2-yl)-4,6,7,8-tetrahydro-1H-pyrazolo[3,4-e][1,4]thiazepin-4-yl)-3-methylphenyl)prop-2-yn-1-ol], the IC50 lay within 1 to 10 µM.

Consider `CCn1nc(-c2ccccn2)c2c1N[C@H](C)CS[C@@H]2c1ccc(C#CCO)cc1C` (single isomer, unassigned) [M.26, 3-(4-(1-ethyl-7-methyl-3-(pyridin-2-yl)-4,6,7,8-tetrahydro-1H-pyrazolo[3,4-e][1,4]thiazepin-4-yl)-3-methylphenyl)prop-2-yn-1-ol], for which the IC50 lay in the range of 1 to 10 µM.

Consider `CCn1nc(-c2ccccn2)c2c1N[C@@H](C)CS[C@@H]2c1ccc(C#CC(C)(C)O)cc1C` (single isomer, unassigned) [M.29, 4-(4-(1-ethyl-7-methyl-3-(pyridin-2-yl)-4,6,7,8-tetrahydro-1H-pyrazolo[3,4-e][1,4]thiazepin-4-yl)-3-methylphenyl)-2-methylbut-3-yn-2-ol], for which the IC50 is 1 to 10 µM.

Take `CCn1nc(-c2ccccn2)c2c1N[C@H](C)CS[C@@H]2c1ccc(C#CC(C)(C)O)cc1C` (single isomer, unassigned) [M.30, 4-(4-(1-ethyl-7-methyl-3-(pyridin-2-yl)-4,6,7,8-tetrahydro-1H-pyrazolo[3,4-e][1,4]thiazepin-4-yl)-3-methylphenyl)-2-methylbut-3-yn-2-ol]: the IC50 lay in the range of 1 to 10 µM.
